Results as given in patent US20250353851A1, “PURINES AND METHODS OF THEIR USE” (Kineta, Inc., priority 2021, published 2025).

Biological target: T1, full-length human PIKFYVE (N-terminal GST-fusion) (Homo sapiens, UniProt Q9Y2I7, L932S/Q1183K/Q995L/S1033A/S696N/T998S)
T1 construct: A full-length human PIKFYVE [1-2098(end) amino acids; purchased Carna Biosciences; host or cells: baculovirus expression system
Assay: PIKfyve Biochemical Assay (ADP-Glo Kinase assay, Carna Biosciences)
Method: PIKfyve Biochemical Assay. The biochemical PIKFyve inhibition assays were run by Carna Biosciences according to proprietary methodology based on the Promega ADP-Glo™ Kinase assay. […] GST-PIKFYVE was purified by using glutathione sepharose chromatography and used in an ADP-Glo™ Kinase assay (Promega). Reactions were set up by adding the test compound solution, substrate solution, ATP solution and kinase solution, each at 4× final concentrations. Reactions were prepared with assay buffer (50 mM MOPS, 1 mM DTT, pH7.2), mixed, and incubated in black 384 well polystyrene plates for 1 hour at room temperature. ADP-Glo™ reagent was then added for 40 minutes, followed by kinase detection reagent for an additional 40 minutes. The kinase activity was evaluated by detecting relative light units on a luminescence plate reader. Samples were run in duplicate from 10 μM to 3 nM. […] IC50 values were calculated from concentration vs % inhibition curves by fitting to a four-parameter logistic curve.
The biochemical PIKFyve inhibition assays were run by Carna Biosciences according to proprietary methodology based on the Promega ADP-Glo™ Kinase assay. […] The kinase activity was evaluated by detecting relative light units on a luminescence plate reader. […] IC50 values were calculated from concentration vs % inhibition curves by fitting to a four-parameter logistic curve. […]

T1 sequence (Q9Y2I7 whole entry S696N/L932S/Q995L/T998S/S1033A/Q1183K, the tested form may be a part): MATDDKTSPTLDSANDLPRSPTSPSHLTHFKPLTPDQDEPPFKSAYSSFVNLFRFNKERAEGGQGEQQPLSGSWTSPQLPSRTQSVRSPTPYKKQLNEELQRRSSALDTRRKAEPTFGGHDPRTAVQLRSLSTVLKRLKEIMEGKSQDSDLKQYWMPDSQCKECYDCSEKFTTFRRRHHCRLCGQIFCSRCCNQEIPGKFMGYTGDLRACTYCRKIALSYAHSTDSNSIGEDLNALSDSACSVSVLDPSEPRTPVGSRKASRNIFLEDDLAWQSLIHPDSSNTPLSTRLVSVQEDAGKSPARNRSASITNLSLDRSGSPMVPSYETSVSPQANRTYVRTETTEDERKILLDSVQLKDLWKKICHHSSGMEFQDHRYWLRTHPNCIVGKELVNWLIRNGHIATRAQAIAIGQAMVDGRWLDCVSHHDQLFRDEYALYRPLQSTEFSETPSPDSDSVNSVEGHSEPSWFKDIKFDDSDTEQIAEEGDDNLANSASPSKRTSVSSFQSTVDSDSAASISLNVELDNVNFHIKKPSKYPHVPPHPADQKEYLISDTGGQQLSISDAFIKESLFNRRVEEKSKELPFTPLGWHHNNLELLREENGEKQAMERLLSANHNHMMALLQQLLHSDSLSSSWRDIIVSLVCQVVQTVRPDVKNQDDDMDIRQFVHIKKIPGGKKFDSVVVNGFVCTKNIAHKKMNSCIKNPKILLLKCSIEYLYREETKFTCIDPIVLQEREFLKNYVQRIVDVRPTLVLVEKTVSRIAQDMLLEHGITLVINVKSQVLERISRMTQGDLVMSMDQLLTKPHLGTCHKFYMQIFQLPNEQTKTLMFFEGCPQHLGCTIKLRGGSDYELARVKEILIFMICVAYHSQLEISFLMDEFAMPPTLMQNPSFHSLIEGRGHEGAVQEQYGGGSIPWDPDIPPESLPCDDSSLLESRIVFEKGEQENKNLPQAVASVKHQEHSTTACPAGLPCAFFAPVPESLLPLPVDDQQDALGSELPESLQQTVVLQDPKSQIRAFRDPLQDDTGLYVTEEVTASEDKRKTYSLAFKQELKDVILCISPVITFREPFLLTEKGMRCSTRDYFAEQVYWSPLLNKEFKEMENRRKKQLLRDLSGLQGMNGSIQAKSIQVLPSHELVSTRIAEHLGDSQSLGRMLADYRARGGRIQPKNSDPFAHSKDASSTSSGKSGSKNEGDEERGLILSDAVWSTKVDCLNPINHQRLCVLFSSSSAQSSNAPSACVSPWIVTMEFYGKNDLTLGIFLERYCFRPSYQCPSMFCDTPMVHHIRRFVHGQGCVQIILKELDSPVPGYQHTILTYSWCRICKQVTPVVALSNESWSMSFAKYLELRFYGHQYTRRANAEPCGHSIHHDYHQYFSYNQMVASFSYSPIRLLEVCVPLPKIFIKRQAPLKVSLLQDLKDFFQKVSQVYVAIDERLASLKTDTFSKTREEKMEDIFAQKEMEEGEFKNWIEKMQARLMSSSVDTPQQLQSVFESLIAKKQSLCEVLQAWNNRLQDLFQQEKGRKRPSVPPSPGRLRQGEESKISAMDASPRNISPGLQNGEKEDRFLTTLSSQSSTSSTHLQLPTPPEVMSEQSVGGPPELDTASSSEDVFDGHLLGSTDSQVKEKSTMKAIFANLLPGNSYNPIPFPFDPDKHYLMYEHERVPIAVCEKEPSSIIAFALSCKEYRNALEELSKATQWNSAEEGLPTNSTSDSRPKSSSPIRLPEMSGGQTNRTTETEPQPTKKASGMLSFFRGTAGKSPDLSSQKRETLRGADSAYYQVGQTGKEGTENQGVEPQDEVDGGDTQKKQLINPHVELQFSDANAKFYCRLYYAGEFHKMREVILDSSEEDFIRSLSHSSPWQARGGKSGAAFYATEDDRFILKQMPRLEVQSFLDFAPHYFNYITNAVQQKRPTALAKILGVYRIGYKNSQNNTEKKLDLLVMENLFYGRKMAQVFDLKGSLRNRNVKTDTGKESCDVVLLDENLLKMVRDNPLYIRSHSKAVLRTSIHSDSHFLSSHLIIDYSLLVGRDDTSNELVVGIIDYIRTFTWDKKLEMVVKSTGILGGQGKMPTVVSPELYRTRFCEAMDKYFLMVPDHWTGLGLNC

CCn1c(C(C)O)nc2c(N3CCCCC3)nc(-c3cccc(-c4ccn(C)n4)c3)nc21 (stereo not shown) [Compound 339, 1-(9-ethyl-2-(3-(1-methyl-1H-pyrazol-3-yl)phenyl)-6-(piperidin-1-yl)-9H-purin-8-yl)ethan-1-ol]
IC50: 4.41 µM
